The values below are quoted from earlier work in paper PMC4761099 (British Journal of Pharmacology, 2016).

This data set relates to Ob/ob mice. The conditions noted are these: leptin mutant mice, acute setting; ref Kerr et al., 2011.

For the substance “GIP(8-42): literature GIP fragment (Kerr et al., 2011) (SDYSIAMDKIHQQDFVNWLLAQKGKKNDWKHNITQ; Gastric inhibitory polypeptide; UniProt P09681 59-93, looked up, fragment)”, the “antagonism of GIP(1–42) in vivo, in words” value is “decreased insulin secretion and increased plasma glucose”.
